In ChEMBL document CHEMBL5360557 (Eur J Med Chem, 2023):
Activity calls are given as the source filed them. The rule behind the calls is not given here.

Molecular target: T1, Cholinesterase (Homo sapiens, UniProt P06276)
Test: Competitive inhibition of human BuChE using butyrylthiocholine iodide as substrate assessed as increase in Km with constant apparent Vmax preincubated with enzyme for 5 mins followed by substrate addition and measured after 1 min by Lineweaver-Burk plot based Ellman's method
Settings: time 6.0 min

T1 sequence (P06276 whole entry): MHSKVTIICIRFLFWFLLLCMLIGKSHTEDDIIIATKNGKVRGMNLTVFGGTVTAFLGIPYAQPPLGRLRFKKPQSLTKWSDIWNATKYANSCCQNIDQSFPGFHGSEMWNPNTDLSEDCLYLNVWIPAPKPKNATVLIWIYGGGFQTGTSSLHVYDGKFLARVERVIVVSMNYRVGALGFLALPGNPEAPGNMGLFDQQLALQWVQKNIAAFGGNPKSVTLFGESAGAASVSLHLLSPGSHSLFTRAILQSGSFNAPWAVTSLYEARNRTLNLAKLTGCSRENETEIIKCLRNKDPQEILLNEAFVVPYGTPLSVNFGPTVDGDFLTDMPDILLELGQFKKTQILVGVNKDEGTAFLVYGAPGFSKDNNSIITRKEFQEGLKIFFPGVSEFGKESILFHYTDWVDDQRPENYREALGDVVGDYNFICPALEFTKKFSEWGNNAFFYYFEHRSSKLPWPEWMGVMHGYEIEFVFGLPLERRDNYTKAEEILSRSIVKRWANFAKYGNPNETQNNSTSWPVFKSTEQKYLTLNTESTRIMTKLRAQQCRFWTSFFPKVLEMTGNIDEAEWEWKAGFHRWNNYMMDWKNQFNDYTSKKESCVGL

In the case of `COc1cccc(CN(CCCc2ccccc2F)C2CCC2)c1OCc1ccccc1`, the inhibition is reported as “Active”.

Molecular target: T1, Cholinesterase
Test: Inhibition of human BuChE using butyrylthiocholine iodide as substrate incubated for 1 min by spectrophotometry based Ellman's method
Settings: not given

With `COc1cc(CN(C)CCc2ccc(O)cc2)c(-c2cccc3c2N(C)CC3)cc1OC` the IC50 was 0.91 µM.

Test system: not listed separately
Test: in vitro
Settings: PAMPA
Description: Permeability of the compound incubated for 3 to 6 hrs by PAMPA-BBB assay

`COc1cccc(CN(CCCc2ccccc2F)C2CCC2)c1OCc1ccccc1` and `COc1cccc(CN(CCCc2ccccc2F)C2CCCC2)c1OCc1ccccc1` are within 1.5-fold of each other in Papp: 60 ×10⁻⁶ cm/s for the first, 61 ×10⁻⁶ cm/s for the second.

Compared with `CCCN(CCCc1ccc(O)cc1)Cc1cccc(OC)c1OCc1ccccc1`, `CCCN(CCCc1ccc(F)cc1)Cc1cccc(OC)c1OCc1ccccc1` is 3.8-fold higher in Papp: 16 ×10⁻⁶ cm/s for the first, 61 ×10⁻⁶ cm/s for the second.

First: CCCCCCN(CCCc1ccccc1)Cc1cccc(OC)c1OCc1ccccc1
Second: C=CCCN(CCCc1ccccc1)Cc1cccc(OC)c1OCc1ccccc1
The Papp of the first is 3.7-fold lower: 9 ×10⁻⁶ cm/s for the first, 33 ×10⁻⁶ cm/s for the second.

Going from `CCCN(CCCc1ccccc1F)Cc1cccc(OC)c1OCc1ccccc1` to `C=CCN(CCCc1ccccc1)Cc1cccc(OC)c1OCc1ccccc1`, the Papp falls from 85 ×10⁻⁶ cm/s to 28 ×10⁻⁶ cm/s (3-fold).

With `COc1cccc(CNCCc2ccc(O)cc2)c1OCc1ccccc1` the Papp was 19 ×10⁻⁶ cm/s.

Molecular target: T2, Acetylcholinesterase (Homo sapiens, UniProt P22303)
Test: Inhibition of human AChE using acetylthiocholine iodide as substrate incubated for 1 min by spectrophotometry based Ellman's method
Settings: not given

T2 sequence (P22303 whole entry): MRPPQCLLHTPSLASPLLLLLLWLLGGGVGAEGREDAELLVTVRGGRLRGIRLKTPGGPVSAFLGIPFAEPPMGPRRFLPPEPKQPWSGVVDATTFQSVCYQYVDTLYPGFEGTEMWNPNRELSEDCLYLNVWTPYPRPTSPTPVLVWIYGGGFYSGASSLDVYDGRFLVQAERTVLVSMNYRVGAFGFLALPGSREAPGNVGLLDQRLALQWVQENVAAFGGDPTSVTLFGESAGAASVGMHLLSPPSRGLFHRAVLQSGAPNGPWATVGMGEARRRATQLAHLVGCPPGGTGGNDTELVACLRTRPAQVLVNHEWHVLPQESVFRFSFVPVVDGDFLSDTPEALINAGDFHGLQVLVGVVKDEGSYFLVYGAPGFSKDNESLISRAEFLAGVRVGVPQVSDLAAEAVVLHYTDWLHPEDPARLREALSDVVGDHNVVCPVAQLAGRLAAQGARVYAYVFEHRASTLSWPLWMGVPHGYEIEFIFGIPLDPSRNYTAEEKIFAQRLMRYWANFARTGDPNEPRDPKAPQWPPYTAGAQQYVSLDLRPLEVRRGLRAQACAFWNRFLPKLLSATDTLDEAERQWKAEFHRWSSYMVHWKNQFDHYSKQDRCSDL

`COc1cc(CN(C)CCc2ccc(O)cc2)c(-c2cccc3c2N(C)CC3)cc1OC` and `CN(CCc1ccc(O)cc1)Cc1cc2c(cc1-c1cccc3c1N(C)CC3)OCO2` cannot be ordered by IC50: over 100 µM for the first, over 100 µM for the second.

Test system: not listed separately
Test: Cytotoxicity against human HepG2 cells assessed as inhibition of cell growth incubated for 24 hrs by MTT assay
Format: toxicity, cell-based
Settings: not given

Compared with `COc1cccc(CN(CCCc2ccccc2F)C2CCC2)c1OCc1ccccc1`, `COc1cccc(CN(CCCc2ccccc2F)C2CCCC2)c1OCc1ccccc1` is 2.7-fold lower in IC50 at 24 h: 76 µM for the first, 28 µM for the second.

`CCCN(CCCc1ccc(O)cc1)Cc1cccc(OC)c1OCc1ccccc1` and `CCCN(CCCc1ccc(F)cc1)Cc1cccc(OC)c1OCc1ccccc1` are within 1.5-fold of each other in IC50 at 24 h: 31 µM for the first, 32 µM for the second.

`CCCCCCN(CCCc1ccccc1)Cc1cccc(OC)c1OCc1ccccc1` and `C=CCCN(CCCc1ccccc1)Cc1cccc(OC)c1OCc1ccccc1` are within 1.5-fold of each other in IC50 at 24 h: 106 µM for the first, 92 µM for the second.

First: CCCN(CCCc1ccccc1F)Cc1cccc(OC)c1OCc1ccccc1
Second: C=CCN(CCCc1ccccc1)Cc1cccc(OC)c1OCc1ccccc1
The IC50 at 24 h of the first is lower: 33 µM for the first, over 200 µM for the second.

Molecular target: T2, Acetylcholinesterase
Test: Inhibition of recombinant human AChE using acetylthiocholine iodide as substrate preincubated with enzyme for 5 mins followed by substrate addition and measured after 1 min by Ellman's method
Settings: not given

`COc1cccc(CN(CCCc2ccccc2F)C2CCC2)c1OCc1ccccc1` and `COc1cccc(CN(CCCc2ccccc2F)C2CCCC2)c1OCc1ccccc1` cannot be ordered by IC50: over 10 µM for the first, over 10 µM for the second.

`CCCN(CCCc1ccc(O)cc1)Cc1cccc(OC)c1OCc1ccccc1` and `CCCN(CCCc1ccc(F)cc1)Cc1cccc(OC)c1OCc1ccccc1` cannot be ordered by IC50: over 10 µM for the first, over 10 µM for the second.

`CCCCCCN(CCCc1ccccc1)Cc1cccc(OC)c1OCc1ccccc1` and `C=CCCN(CCCc1ccccc1)Cc1cccc(OC)c1OCc1ccccc1` cannot be ordered by IC50: over 10 µM for the first, over 10 µM for the second.

`CCCN(CCCc1ccccc1F)Cc1cccc(OC)c1OCc1ccccc1` and `C=CCN(CCCc1ccccc1)Cc1cccc(OC)c1OCc1ccccc1` cannot be ordered by IC50: over 10 µM for the first, over 10 µM for the second.

`COc1cccc(CNCCc2ccc(O)cc2)c1OCc1ccccc1` showed an IC50 of over 10 µM.

Test system: not listed separately
Test: Cytotoxicity against human SH-SY5Y cells assessed as inhibition of cell growth incubated for 24 hrs by MTT assay
Format: toxicity, cell-based
Settings: not given

First: COc1cccc(CN(CCCc2ccccc2F)C2CCC2)c1OCc1ccccc1
Second: COc1cccc(CN(CCCc2ccccc2F)C2CCCC2)c1OCc1ccccc1
The IC50 at 24 h of the first is 1.6-fold higher: 87 µM for the first, 55 µM for the second.

Compared with `CCCN(CCCc1ccc(O)cc1)Cc1cccc(OC)c1OCc1ccccc1`, `CCCN(CCCc1ccc(F)cc1)Cc1cccc(OC)c1OCc1ccccc1` is 3.9-fold higher in IC50 at 24 h: 44 µM for the first, 170 µM for the second.

`CCCCCCN(CCCc1ccccc1)Cc1cccc(OC)c1OCc1ccccc1` and `C=CCCN(CCCc1ccccc1)Cc1cccc(OC)c1OCc1ccccc1` are within 1.5-fold of each other in IC50 at 24 h: 110 µM for the first, 131 µM for the second.

Going from `CCCN(CCCc1ccccc1F)Cc1cccc(OC)c1OCc1ccccc1` to `C=CCN(CCCc1ccccc1)Cc1cccc(OC)c1OCc1ccccc1`, the IC50 at 24 h rises from 49 µM to over 200 µM.

Molecular target: T1, Cholinesterase
Test: Competitive inhibition of human BuChE using butyrylthiocholine iodide as substrate assessed as inhibition constant preincubated with enzyme for 5 mins followed by substrate addition and measured after 1 min by Lineweaver-Burk plot based Ellman's method
Settings: not given

With `COc1cccc(CN(CCCc2ccccc2F)C2CCC2)c1OCc1ccccc1` the Ki was 0.00404 µM.

Species: Homo sapiens
Test: Selectivity ratio of IC50 for inhibition of human AChE using acetylthiocholine as substrate to IC50 for inhibition of human BuChE using butyrylthiocholine iodide as substrate
Settings: not given

Work on `COc1cccc(CNCCc2ccc(O)cc2)c1OCc1ccccc1` yielded a Ratio IC50 of over 42.

Molecular target: T1, Cholinesterase
Test: Inhibition of recombinant human BuChE using butyrylthiocholine iodide as substrate at 10 uM preincubated with enzyme for 5 mins followed by substrate addition and measured after 1 min by Ellman's method relative to control
Settings: time 6.0 min

`COc1cccc(CN(CCCc2ccccc2F)C2CCC2)c1OCc1ccccc1` and `COc1cccc(CN(CCCc2ccccc2F)C2CCCC2)c1OCc1ccccc1` are the same in inhibition: 99% for the first, 99% for the second.

Compared with `CCCN(CCCc1ccc(O)cc1)Cc1cccc(OC)c1OCc1ccccc1`, `CCCN(CCCc1ccc(F)cc1)Cc1cccc(OC)c1OCc1ccccc1` is lower in inhibition: 98% for the first, 96% for the second.

First: CCCCCCN(CCCc1ccccc1)Cc1cccc(OC)c1OCc1ccccc1
Second: C=CCCN(CCCc1ccccc1)Cc1cccc(OC)c1OCc1ccccc1
The inhibition of the first is lower: 95% for the first, 97% for the second.

First: CCCN(CCCc1ccccc1F)Cc1cccc(OC)c1OCc1ccccc1
Second: C=CCN(CCCc1ccccc1)Cc1cccc(OC)c1OCc1ccccc1
The inhibition of the first is lower: 97% for the first, 98% for the second.

Compound `COc1cccc(CNCCc2ccc(O)cc2)c1OCc1ccccc1` has an inhibition of 94%.

Molecular target: T1, Cholinesterase
Test: Inhibition of recombinant human BuChE using butyrylthiocholine iodide as substrate preincubated with enzyme for 5 mins followed by substrate addition and measured after 1 min by Ellman's method
Settings: not given

Going from `COc1cccc(CN(CCCc2ccccc2F)C2CCC2)c1OCc1ccccc1` to `COc1cccc(CN(CCCc2ccccc2F)C2CCCC2)c1OCc1ccccc1`, the IC50 rises from 0.004 µM to 0.006 µM (1.5-fold).

`CCCN(CCCc1ccc(O)cc1)Cc1cccc(OC)c1OCc1ccccc1` and `CCCN(CCCc1ccc(F)cc1)Cc1cccc(OC)c1OCc1ccccc1` are within 1.5-fold of each other in IC50: 0.07 µM for the first, 0.1 µM for the second.

Going from `CCCCCCN(CCCc1ccccc1)Cc1cccc(OC)c1OCc1ccccc1` to `C=CCCN(CCCc1ccccc1)Cc1cccc(OC)c1OCc1ccccc1`, the IC50 rises from 0.04 µM to 0.07 µM (1.8-fold).

Going from `CCCN(CCCc1ccccc1F)Cc1cccc(OC)c1OCc1ccccc1` to `C=CCN(CCCc1ccccc1)Cc1cccc(OC)c1OCc1ccccc1`, the IC50 rises from 0.02 µM to 0.04 µM (2-fold).

In the case of `COc1cccc(CNCCc2ccc(O)cc2)c1OCc1ccccc1`, the IC50 is reported as 0.2 µM.
